Assay results published in ChEMBL document CHEMBL1649501, “Integration of pharmacokinetic and pharmacodynamic indices of orbifloxacin in beagle dogs after a single intravenous and intramuscular administration” (Antimicrob Agents Chemother, 2009).
In brackets after ≈: the same amount, converted by molar mass.

Key:
[1] = T>MIC in Beagle dog infected with Proteus mirabilis at 2.5 mg/kg, im; type: functional; settings: route intramuscular
[2] = T>MIC in Beagle dog infected with Escherichia coli at 2.5 mg/kg, iv; type: functional
[3] = T>MIC in Beagle dog infected with Staphylococcus intermedius at 2.5 mg/kg, iv; type: functional
[4] = Volume of distribution at steady state in Beagle dog at 2.5 mg/kg, iv; type: ADME, organism-based, Canis lupus familiaris; set-up: dose 2.5 mg/kg, route intravenous; settings: in vivo
[5] = T>MIC in Beagle dog infected with Staphylococcus aureus at 2.5 mg/kg, iv; type: functional
[6] = Elimination rate constant in Beagle dog at 2.5 mg/kg, iv; type: ADME, organism-based, Canis lupus familiaris; set-up: dose 2.5 mg/kg, route intravenous; settings: in vivo
[7] = T>MIC in Beagle dog infected with Escherichia coli at 2.5 mg/kg, im; type: functional; settings: route intramuscular
[8] = Ratio of Cmax to MIC in Beagle dog infected with Staphylococcus intermedius at 2.5 mg/kg, im; type: functional; settings: route intramuscular
[9] = Ratio of AUC (0 to 24 hrs) to MIC for bactericidal action in Beagle dog infected with Staphylococcus intermedius clinical isolate at 2.5 mg/kg, im; type: functional; settings: route intramuscular
[10] = AUC (0 to infinity) in Beagle dog at 2.5 mg/kg, iv; type: ADME, organism-based, Canis lupus familiaris; set-up: time infinity, dose 2.5 mg/kg, route intravenous; settings: plasma
[11] = Terminal half life in Beagle dog at 2.5 mg/kg, im; type: ADME, organism-based, Canis lupus familiaris; set-up: dose 2.5 mg/kg, route intramuscular; settings: in vivo, read-out: beta t1/2 (converted)
[12] = Ratio of AUC (0 to 24 hrs) to MIC in Beagle dog infected with Staphylococcus aureus at 2.5 mg/kg, im; type: functional; settings: route intramuscular
[13] = Mean residence time (0 to infinity) in Beagle dog at 2.5 mg/kg, im; type: ADME, organism-based, Canis lupus familiaris; set-up: dose 2.5 mg/kg, route intramuscular; settings: in vivo
[14] = T>MIC in Beagle dog infected with Staphylococcus aureus at 2.5 mg/kg, im; type: functional; settings: route intramuscular
Canis familiaris = test: Mean absorption time in Beagle dog at 2.5 mg/kg, im; type: ADME, organism-based, Canis lupus familiaris; set-up: dose 2.5 mg/kg, route intramuscular; settings: in vivo
[15] = tested on: Staphylococcus intermedius; test: Antibacterial activity against Staphylococcus intermedius clinical isolate infected in Beagle dog assessed as bacterial load at 2.5 mg/kg, im after 24 hrs; type: functional; settings: route intramuscular
[16] = Ratio of AUC (0 to 24 hrs) to MIC in Beagle dog infected with Staphylococcus intermedius at 2.5 mg/kg, im; type: functional; settings: route intramuscular
[17] = Cmax in Beagle dog at 2.5 mg/kg, im; type: ADME, organism-based, Canis lupus familiaris; set-up: dose 2.5 mg/kg, route intramuscular; settings: in vivo
Escherichia coli [18] = test: Antibacterial activity against Escherichia coli after 30 hrs by broth microdilution method; type: functional, organism-based
[19] = Ratio of Cmax to MIC in Beagle dog infected with Escherichia coli at 2.5 mg/kg, im; type: functional; settings: route intramuscular
[20] = Mean residence time (0 to 24 hrs) in Beagle dog at 2.5 mg/kg, iv; type: ADME, organism-based, Canis lupus familiaris; set-up: dose 2.5 mg/kg, route intravenous; settings: in vivo
[21] = T>MIC in Beagle dog infected with Staphylococcus intermedius at 2.5 mg/kg, im; type: functional; settings: route intramuscular
[22] = Ratio of AUC (0 to 24 hrs) to MIC in Beagle dog infected with Proteus mirabilis at 2.5 mg/kg, im; type: functional; settings: route intramuscular
[23] = tested on: Staphylococcus intermedius; test: Antibacterial activity against Staphylococcus intermedius by broth microdilution method; type: functional
[24] = T>MIC in Beagle dog infected with Proteus mirabilis at 2.5 mg/kg, iv; type: functional
[25] = Clearance in Beagle dog at 2.5 mg/kg, iv; type: ADME, organism-based, Canis lupus familiaris; set-up: dose 2.5 mg/kg, route intravenous; settings: in vivo
Escherichia coli [26] = test: Antibacterial activity against Escherichia coli by broth microdilution method; type: functional
[27] = Ratio of AUC (0 to 24 hrs) to MIC in Beagle dog infected with Staphylococcus intermedius at 2.5 mg/kg, iv; type: functional
Staphylococcus aureus [28] = test: Antibacterial activity against Staphylococcus aureus ATCC 29213 by broth microdilution method; type: functional
[29] = Ratio of Cmax to MIC in Beagle dog infected with Proteus mirabilis at 2.5 mg/kg, im; type: functional; settings: route intramuscular
[30] = Ratio of AUC (0 to 24 hrs) to MIC50 in Beagle dog infected with Staphylococcus intermedius clinical isolate at 2.5 mg/kg, im; type: functional; settings: route intramuscular
Proteus mirabilis [31] = test: Antibacterial activity against Proteus mirabilis after 30 hrs by broth microdilution method; type: functional, organism-based
[32] = Ratio of Cmax to MIC in Beagle dog infected with Staphylococcus aureus at 2.5 mg/kg, im; type: functional; settings: route intramuscular
Staphylococcus aureus [33] = test: Antibacterial activity against Staphylococcus aureus by broth microdilution method; type: functional
[34] = AUC (0 to 24 hrs) in Beagle dog at 2.5 mg/kg, im; type: ADME, organism-based, Canis lupus familiaris; set-up: time < 24 hr, dose 2.5 mg/kg, route intramuscular; settings: plasma
[35] = Mean residence time (0 to 24 hrs) in Beagle dog at 2.5 mg/kg, im; type: ADME, organism-based, Canis lupus familiaris; set-up: dose 2.5 mg/kg, route intramuscular; settings: in vivo
[36] = Apparent volume of distribution in Beagle dog at 2.5 mg/kg, iv; type: ADME, organism-based, Canis lupus familiaris; set-up: dose 2.5 mg/kg, route intravenous; settings: in vivo, read-out: Vz
[37] = Terminal half life in Beagle dog at 2.5 mg/kg, iv; type: ADME, organism-based, Canis lupus familiaris; set-up: dose 2.5 mg/kg, route intravenous; settings: in vivo, read-out: beta t1/2 (converted)
[38] = Ratio of AUC (0 to 24 hrs) to MIC in Beagle dog infected with Proteus mirabilis at 2.5 mg/kg, iv; type: functional
[39] = Ratio of AUC (0 to 24 hrs) to MIC for bacterial elimination in Beagle dog infected with Staphylococcus intermedius clinical isolate at 2.5 mg/kg, im; type: functional; settings: route intramuscular
[40] = Ratio of AUC (0 to 24 hrs) to MIC in Beagle dog infected with Escherichia coli at 2.5 mg/kg, iv; type: functional
[41] = AUC (0 to 24 hrs) in Beagle dog at 2.5 mg/kg, iv; type: ADME, organism-based, Canis lupus familiaris; set-up: time < 24 hr, dose 2.5 mg/kg, route intravenous; settings: plasma
[42] = Tmax in Beagle dog at 2.5 mg/kg, im; type: ADME, organism-based, Canis lupus familiaris; set-up: dose 2.5 mg/kg, route intramuscular; settings: in vivo
[43] = AUC (0 to infinity) in Beagle dog at 2.5 mg/kg, im; type: ADME, organism-based, Canis lupus familiaris; set-up: time infinity, dose 2.5 mg/kg, route intramuscular; settings: plasma
[44] = Bioavailability in Beagle dog at 2.5 mg/kg, im; type: ADME, organism-based, Canis lupus familiaris; settings: in vivo
Staphylococcus aureus [45] = test: Antibacterial activity against Staphylococcus aureus after 30 hrs by broth microdilution method; type: functional, organism-based
[46] = tested on: Staphylococcus intermedius; test: Antibacterial activity against Staphylococcus intermedius after 30 hrs by broth microdilution method; type: functional, organism-based
[47] = Ratio of AUC (0 to 24 hrs) to MIC in Beagle dog infected with Staphylococcus aureus at 2.5 mg/kg, iv; type: functional
[48] = Mean residence time (0 to infinity) in Beagle dog at 2.5 mg/kg, iv; type: ADME, organism-based, Canis lupus familiaris; set-up: dose 2.5 mg/kg, route intravenous; settings: in vivo
Proteus mirabilis [49] = test: Antibacterial activity against Proteus mirabilis by broth microdilution method; type: functional
[50] = Ratio of AUC (0 to 24 hrs) to MIC in Beagle dog infected with Escherichia coli at 2.5 mg/kg, im; type: functional; settings: route intramuscular
[51] = Elimination rate constant in Beagle dog at 2.5 mg/kg, im; type: ADME, organism-based, Canis lupus familiaris; set-up: dose 2.5 mg/kg, route intramuscular; settings: in vivo
[52] = Ratio of AUC (0 to 24 hrs) to MIC for bacteriostatic action in Beagle dog infected with Staphylococcus intermedius clinical isolate at 2.5 mg/kg, im; type: functional; settings: route intramuscular

Structure (SMILES): C[C@@H]1CN(c2c(F)c(F)c3c(=O)c(C(=O)O)cn(C4CC4)c3c2F)C[C@H](C)N1 [ORBIFLOXACIN]
- T>MIC [1]: 6.5 h
- T>MIC [2]: 21.1 h
- T>MIC [3]: 8.75 h
- Vd [4]: 1.61 L/kg
- T>MIC [5]: 8.75 h
- k el [6]: 4.72e-05 s⁻¹
- T>MIC [7]: 21.3 h
- Ratio [8]: 4.61
- RatioAUC/MIC [9]: 31.8
- AUC(0-inf) [10]: 8210 ng·h/mL
- half-life [11]: 237 min
- RatioAUC/MIC [12]: 31.1
- MRT inf [13]: 5.69 h
- T>MIC [14]: 9.15 h
- MAT (Canis familiaris): 0.51 h
- CFU/ml [15]: 2.06
- RatioAUC/MIC [16]: 31.1
- Cmax [17]: 1150 ng/mL
- Activity (Escherichia coli [18]): Dose-dependent effect
- Ratio [19]: 19.1
- MRT last [20]: 4.71 h
- T>MIC [21]: 9.15 h
- RatioAUC/MIC [22]: 15.5
- MIC [23]: 0.25 µg/mL (≈ 0.632 µM)
- T>MIC [24]: 5.6 h
- clearance [25]: 5.17 mL/min/kg
- MIC (Escherichia coli [26]): 0.06 µg/mL (≈ 0.152 µM)
- RatioAUC/MIC [27]: 32.3
- MIC (Staphylococcus aureus [28]): 0.5 µg/mL (≈ 1.26 µM)
- Ratio [29]: 2.3
- Ratio [30]: 29
- Activity (Proteus mirabilis [31]): Dose-dependent effect
- Ratio [32]: 4.61
- MIC (Staphylococcus aureus [33]): 0.25 µg/mL (≈ 0.632 µM)
- AUC(0-t) at 24 h [34]: 8370 ng·h/mL
- MRT last [35]: 5.31 h
- Vd [36]: 1.95 L/kg
- half-life [37]: 254 min
- RatioAUC/MIC [38]: 16.1
- RatioAUC/MIC [39]: 40
- RatioAUC/MIC [40]: 134.6
- AUC(0-t) at 24 h [41]: 8070 ng·h/mL
- Tmax [42]: 1.15 h
- AUC(0-inf) [43]: 8490 ng·h/mL
- bioavailability [44]: 100%
- Activity (Staphylococcus aureus [45]): Dose-dependent effect
- Activity [46]: Dose-dependent effect
- RatioAUC/MIC [47]: 32.3
- MRT inf [48]: 5.13 h
- MIC (Proteus mirabilis [49]): 0.5 µg/mL (≈ 1.26 µM)
- RatioAUC/MIC [50]: 129.8
- k el [51]: 4.72e-05 s⁻¹
- RatioAUC/MIC [52]: 26.7
